From PubChem BioAssay (NCI)
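Compound exposure: 48 hours, 5 concentrations, 96-well plates. GI50 = concentration required for 50% inhibition of growth. TGI marks complete inhibition of growth.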

What was measured:
Experiment in all cases: NCI anticancer screen, dose series, 48 h
HOP-62 NSCLC = test system: HOP-62 NSCLC
MDA-MB-231 breast = test system: MDA-MB-231 breast
NCI-H23 lung = test system: NCI-H23 lung
SK-OV-3 ovarian = test system: SK-OV-3 ovarian
HL-60(TB) leukemia = test system: HL-60(TB) leukemia
SN12C renal = test system: SN12C renal
OVCAR-5 ovarian = test system: OVCAR-5 ovarian
PC-3 prostate = test system: PC-3 prostate
T-47D breast = test system: T-47D breast
SNB-75 CNS = test system: SNB-75 CNS

COc1ccc2c(O)c3[n+](cc2c1OC)CCc1cc2c(cc1-3)OCO2
TGI (HOP-62 NSCLC): > 100 µM | TGI (MDA-MB-231 breast): > 100 µM | TGI (NCI-H23 lung): > 100 µM | TGI (SK-OV-3 ovarian): > 100 µM | TGI (HL-60(TB) leukemia): > 100 µM | TGI (SN12C renal): > 100 µM | TGI (OVCAR-5 ovarian): > 100 µM | TGI (PC-3 prostate): > 100 µM | TGI (T-47D breast): > 100 µM | TGI (SNB-75 CNS): > 100 µM

ClCCN(CCCl)Cc1ccc(Nc2ccnc3cc(Cl)ccc23)cc1
GI50 (HOP-62 NSCLC): 1.34 µM | TGI (HOP-62 NSCLC): 5.16 µM | GI50 (MDA-MB-231 breast): 1.66 µM | TGI (MDA-MB-231 breast): 3.49 µM | GI50 (NCI-H23 lung): 1.33 µM | TGI (NCI-H23 lung): 4.52 µM | GI50 (SK-OV-3 ovarian): 1.44 µM | TGI (SK-OV-3 ovarian): 4.52 µM | GI50 (HL-60(TB) leukemia): 0.403 µM | TGI (HL-60(TB) leukemia): 3.07 µM | GI50 (SN12C renal): 0.48 µM | TGI (SN12C renal): 4.02 µM | GI50 (OVCAR-5 ovarian): 2.57 µM | TGI (OVCAR-5 ovarian): 6.66 µM | GI50 (PC-3 prostate): 1.57 µM | TGI (PC-3 prostate): 5.71 µM | GI50 (T-47D breast): 1.09 µM | TGI (T-47D breast): 3.69 µM | GI50 (SNB-75 CNS): 1.34 µM | TGI (SNB-75 CNS): 3.72 µM

COc1ccc(C(=O)C2CC3(CCC2(O)c2ccc(OC)cc2)CC(=O)Nc2ccccc2C3=O)cc1 (stereo not given)
TGI (HOP-62 NSCLC): > 100 µM | TGI (MDA-MB-231 breast): > 100 µM | TGI (NCI-H23 lung): > 100 µM | TGI (SK-OV-3 ovarian): > 100 µM | TGI (HL-60(TB) leukemia): > 100 µM | TGI (SN12C renal): > 100 µM | TGI (OVCAR-5 ovarian): > 100 µM | TGI (PC-3 prostate): > 100 µM | TGI (T-47D breast): > 100 µM | TGI (SNB-75 CNS): > 100 µM

COC[C@H]1C(=O)NCC(=O)N2NCCC[C@H]2C(=O)N(O)[C@H](C)C(=O)O[C@@H](C(C)C)[C@H](NC(=O)[C@](C)(O)[C@]2(O)CC[C@@H](CC(C)C)[C@H](C)O2)C(=O)N2NCCC[C@@H]2C(=O)N1O
GI50 (HOP-62 NSCLC): < 0.01 µM | TGI (HOP-62 NSCLC): 0.0149 µM | GI50 (MDA-MB-231 breast): < 0.0111 µM | TGI (MDA-MB-231 breast): 0.0432 µM | GI50 (NCI-H23 lung): < 0.01 µM | TGI (NCI-H23 lung): 0.0364 µM | GI50 (SK-OV-3 ovarian): 0.0163 µM | TGI (SK-OV-3 ovarian): 0.0306 µM | GI50 (HL-60(TB) leukemia): 0.0151 µM | TGI (HL-60(TB) leukemia): 0.0399 µM | GI50 (SN12C renal): < 0.0126 µM | TGI (SN12C renal): 0.0411 µM | GI50 (OVCAR-5 ovarian): 0.015 µM | TGI (OVCAR-5 ovarian): 0.0333 µM | GI50 (PC-3 prostate): 0.0174 µM | TGI (PC-3 prostate): 0.0326 µM | GI50 (T-47D breast): 0.0149 µM | TGI (T-47D breast): 0.0332 µM | GI50 (SNB-75 CNS): < 0.01 µM | TGI (SNB-75 CNS): 0.011 µM

CO/C(=N\N=C(/C)C(F)(F)F)c1ccncc1
TGI (HOP-62 NSCLC): > 100 µM | TGI (MDA-MB-231 breast): > 100 µM | TGI (NCI-H23 lung): > 100 µM | TGI (SK-OV-3 ovarian): > 100 µM | TGI (HL-60(TB) leukemia): > 100 µM | TGI (SN12C renal): > 100 µM | TGI (OVCAR-5 ovarian): > 100 µM | TGI (PC-3 prostate): > 100 µM | TGI (T-47D breast): > 100 µM | TGI (SNB-75 CNS): > 100 µM

CCOc1ncn(-c2ccc(NC(=S)Nc3cccc(O)c3)cc2)n1
TGI (HOP-62 NSCLC): > 100 µM | TGI (MDA-MB-231 breast): > 100 µM | TGI (NCI-H23 lung): > 100 µM | TGI (SK-OV-3 ovarian): > 100 µM | TGI (HL-60(TB) leukemia): > 100 µM | TGI (SN12C renal): > 100 µM | TGI (OVCAR-5 ovarian): > 100 µM | TGI (PC-3 prostate): > 100 µM | TGI (T-47D breast): > 100 µM | TGI (SNB-75 CNS): > 100 µM
